According to PMC11220654, “A Frog Skin‐Derived Peptide Targeting SCD1 Exerts Radioprotective Effects Against Skin Injury by Inhibiting STING‐Mediated Inflammation” (Advanced Science, 2024):
Residues, ends and D or L forms follow the SMILES beside them. No end group written: not given here. *: point of attachment. Cbz = O=C(OCc1ccccc1)*

Assays:
TBK1 in HaCaT cells = assay: TBK1 protein level and ubiquitination (Western blotting, IP); type: cell-based, human
From the text: Here, we further explored whether and how RIFSP‐2 decreased the protein level of TBK1 in HaCaT cells. […] Since the degradation of TBK1 protein was reported to be regulated by either ubiquitination mediated proteasome pathway^[ [33] ^] or chaperone‐mediated autophagy signaling,^[ [34] ^] we testified the influence of the protein synthesis inhibitor (CHX) and the proteasome inhibitor (MG132) in RIFSP‐2 treated HaCaT cells. […] Then we analyzed the colocalization of TBK1 and lysosomes through confocal immunofluorescence microscopy assays. Although, administration of RIFSP‐2 induced a transient decrease of TBK1 fluorescence intensity (Figure S5K,L, Supporting Information), the co‐localization assays didn't support the increase of TBK1 location in lysosomes in RIFSP‐2 treated HaCaT cells (Figure S5M, Supporting Information).
Fig. S5 Influence of RIFSP-2 on STING activation and TBK1 expression in HaCaT […]
Communities classified based on the association network of the different metabolites in irradiated cells treated with or without RIFSP -2. (B) Structural character analysis of the lipid metabolites in irradiated cells treated with or without RIFSP -2. (C) Dose dependent induction of phosphorylation of STING and downstream TBK1 detected through western blotting. […] (M) Pearson correlation coefficient was calculated through Image J to explore the colocalization between TBK1 and […]

WS1 cells = assay: Intracellular uptake of FITC-labeled peptides (confocal microscopy, flow cytometry); type: cell-based
From the text: (§1) Distinct from previous reports, the RIFSPs were obtained from skin tissue crude extracts but not from skin secretions. In addition, the administration of exogenous RIFSPs protected cultured skin cells, which hints that some RIFSPs may exert membrane permeability. Therefore, we synthesized FITC‐labeled RIFSPs‐2/5/9/10 and evaluated their possible intracellular uptake by skin cells. […] Glycosaminoglycans have been reported to affect the efficiency of cellular uptake of a wide range of cell penetrating peptides,^[ [27] ^] and we therefore used the competitive inhibitor heparin to investigate whether internalization of FITC‐RIFSP‐2 was dependent on recognition by glycosaminoglycans on the cell surface.
After forming electrostatic interactions with the plasma membrane, peptides principally penetrate into cells via macropinocytosis.^[ [28] ^] […]
(A) Administration of FITC-labeled RIFSPs to WS1 cells and identification of the membrane […] of RIFSP-2 through confocal microscopy. (B)Time- and dose-dependent uptake of FITC-RIFSP-2 by WS1 cells detected through confocal microscopy and flow cytometry analysis. […] Conditioned medium from WS1 cells pretreated with RIFSP-2 increased MMP of irradiated HaCaT cells and vice versa, detected by JC-1(G and H) and Mito-Tracker Red CMXRos (I) staining (n = 4, ** P < 0.01).

HaCaT cells = assay: as above; type: cell-based
From the text: as §1
Figure 2 Macropinocytosis‐mediated uptake of radiation‐induced frog skin peptide 2 (RIFSP‐2) protects skin cells against radiation‐induced injury. […] B) Time‐ and dose‐dependent uptake of FITC‐RIFSP‐2 by HaCaT cells detected through flow cytometry analysis. […] The effect of RIFSP‐2 on D) cell proliferation, E) cell cycle, and F,G) senescence, as detected by colony formation assay, propidium iodide (PI) staining and SA‐β‐Gal staining analysis, respectively. […] M) Effect of RIFSP‐2 on the homeostasis of actin filaments in irradiated skin cells, as detected by rhodamine phalloidin and G‐actin staining assays. […]

skin tissues of mice = conditions: mouse, in vivo, sc
[1] = test system: STING signaling in HaCaT cells; assay: STING downstream signals and inflammatory factors with LPC (18:1) (Western blotting, ELISA); type: cell-based, human
Procedure: Since RIFSP‐2 directly restrained SCD1 and modulated neutral lipid droplets, we further investigated whether alteration of lipid profiles by RIFSP‐2 interfered with STING activation in response to irradiation. […] Furthermore, we investigated the influence of RIFSP‐2 on STING‐regulated inflammatory factors, including IFN‐β, TNF‐α, IL‐1, and IL‐6. […] Nevertheless, significant increase of IFN‐β production in acute stage and TNF‐α production in relative late stage (48 h) in macrophage cells were detected through both Western blotting and ELISA assays (Figure 4F,G).
2.6 Protein-protein interaction analysis
The identified databases of specific binding proteins for RIFSP-2 and STING in irradiated skin cells were merged and the confidence score of interactions >0.7 were regarded as high confidence in alinement of STRING database. Finally, the visualization of this protein-protein interaction was realized through the Cytoscape software.
2.7 Assessment of cytokines by Elisa
HaCaT and RAW264.7 cells were cultivated in 6 cm plates at a density of 5 × 10^5 cells/mL with 2 mL medium per well and treated with LPC (18:1) plus RIFSP-2 for 24 h. 6 or 48 h after irradiation, cytokine concentrations in the […] were measured by ELISA according to the instructions provided by the manufacturer (NEOBIOSCIENCE). The absorbance was detected using a BioTek reader (Synergy HTX, Winooski, USA) at 450 nm. […]

## CCN(CC)CCCC(C)Nc1ccnc2cc(Cl)ccc12 (stereo not drawn) [CQ, chloroquine]
TBK1 in HaCaT cells; 10 nM chloroquine 4 hours, then 15 µM RIFSP-2 24 hours
  influence on TBK1 degradation caused by RIFSP-2: little influence of lysosomes in TBK1 degradation

## C=C1[C@@H](C)[C@H]2[C@H](Cc3ccccc3)NC(=O)[C@]23[C@H](OC(C)=O)/C=C/[C@@](C)(O)C(=O)[C@@H](C)C/C=C/[C@H]3[C@@H]1O [CytD, cytochalasin D]
WS1 cells; after CytD administration in the uptake study
  effect on WS1 cells: swelled and subsequently died in 30 min

## CC(C)C[C@@H](C=O)NC(=O)[C@H](CC(C)C)NC(=O)[C@H](CC(C)C)NC(=O)OCc1ccccc1 [MG132] (Cbz-Leu-Leu-Leu-aldehyde)
TBK1 in HaCaT cells; 24 h after RIFSP-2 treatment (15 µM), MG132 10 µM pretreated 2 hours
  influence on the reduction of TBK1 protein level by RIFSP-2: abrogated the reduction of TBK1 protein level

## LAAGGYDVDKNNSRLK [RIFSP‐2]
HaCaT cells
  uptake in HaCaT cells: time‐ and dose‐dependent manner
WS1 cells
  time at which the FITC signal could be detected: as soon as one hour after administration
Skin tissues of mice
  adverse effects: did not cause obvious adverse effects
  histological examination of the skin tissues: no significant differences

## LPC (18:1)
[1]; keratinocytes but not macrophage cells, Western blotting
  accumulation of TGF-β, TNF-α, IL-1 and IL-6: aggravated the accumulation
[1]; supplementation, dose-dependent manner (Figure S5C)
  phosphorylation of STING and TBK1: elevated the phosphorylation of both STING and its substrate TBK1
